Test results from the supplement of paper PMC10307832.

Tests used:
Test in all cases: relative viability (nuclei count vs DMSO), 5 days (fraction); higher = more cells survive
SK-LU-1 = system: SK-LU-1
Summary of the method: (§1)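 The day after seeding in 1536-well plates, lung cancer cell lines were treated by pin tool with a single drug, or with a fixed anchor-drug dose together with five library-drug doses (not always all listed) in √10 steps. After 5 days, a combined fix-and-stain solution (final 0.05% Triton X-100, 1% formaldehyde, 1 ug/ml Hoechst) was added. Nuclei counted on 4× images gave relative viability as treated counts over vehicle counts, reported as the median of duplicate plates.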

NCI-H2126 = system: NCI-H2126
Summary of the method: as §1

NCI-H1915 = system: NCI-H1915
Summary of the method: as §1

SW 1573 = system: SW 1573
Summary of the method: as §1

NCI-H647 = system: NCI-H647
Summary of the method: as §1

NCI-H2347 = system: NCI-H2347
Summary of the method: as §1

NCI-H322M = system: NCI-H322M
Summary of the method: as §1

NCI-H2023 = system: NCI-H2023
Summary of the method: as §1

LCLC-97TM1 = system: LCLC-97TM1
Summary of the method: as §1

H3255 = system: H3255
Summary of the method: as §1

NCI-H2009 = system: NCI-H2009
Summary of the method: as §1

CC(=O)O[C@@]12CO[C@@H]1C[C@H](O)[C@@]1(C)C(=O)[C@H](O)C3=C(C)[C@@H](OC(=O)[C@H](O)[C@@H](NC(=O)OC(C)(C)C)c4ccccc4)C[C@@](O)([C@@H](OC(=O)c4ccccc4)[C@H]21)C3(C)C [Docetaxel] + CC(=O)Nc1cccc(-n2c(=O)n(C3CC3)c(=O)c3c(Nc4ccc(I)cc4F)n(C)c(=O)c(C)c32)c1 [Trametinib] (partner 0.02 µM) was tested, and the relative viability (SK-LU-1; first compound 0.0002 µM) was 0.518, the relative viability (SK-LU-1; first compound 0.000632 µM) was 0.468 and the relative viability (SK-LU-1; first compound 0.002 µM) was 0.411. For the same compound, the relative viability (SK-LU-1; first compound 0.006325 µM) was 0.281, the relative viability (SK-LU-1; first compound 0.02 µM) was 0.223 and the relative viability (NCI-H2126; first compound 0.0002 µM) was 0.543. The relative viability (NCI-H2126; first compound 0.000632 µM) was 0.471, the relative viability (NCI-H2126; first compound 0.002 µM) was 0.403 and the relative viability (NCI-H2126; first compound 0.006325 µM) was 0.31. It also gave a relative viability (NCI-H1915; first compound 0.0002 µM) of 0.3, a relative viability (NCI-H1915; first compound 0.000632 µM) of 0.288 and a relative viability (NCI-H1915; first compound 0.002 µM) of 0.228. The relative viability (NCI-H1915; first compound 0.006325 µM) was 0.151, the relative viability (NCI-H1915; first compound 0.02 µM) was 0.0803 and the relative viability (SW 1573; first compound 0.0002 µM) was 0.467. The relative viability (SW 1573; first compound 0.000632 µM) was 0.307, the relative viability (SW 1573; first compound 0.002 µM) was 0.165 and the relative viability (SW 1573; first compound 0.006325 µM) was 0.192. It also gave a relative viability (SW 1573; first compound 0.02 µM) of 0.108, a relative viability (NCI-H647; first compound 0.0002 µM) of 0.331 and a relative viability (NCI-H647; first compound 0.000632 µM) of 0.361. The relative viability (NCI-H647; first compound 0.002 µM) was 0.178, the relative viability (NCI-H647; first compound 0.006325 µM) was 0.118 and the relative viability (NCI-H647; first compound 0.02 µM) was 0.0816. It also gave a relative viability (NCI-H2347; first compound 0.0002 µM) of 0.243, a relative viability (NCI-H2347; first compound 0.000632 µM) of 0.349 and a relative viability (NCI-H2347; first compound 0.002 µM) of 0.262. For the same compound, the relative viability (NCI-H2347; first compound 0.006325 µM) was 0.271, the relative viability (NCI-H2347; first compound 0.02 µM) was 0.229 and the relative viability (NCI-H322M; first compound 0.0002 µM) was 0.554. The relative viability (NCI-H322M; first compound 0.000632 µM) was 0.507, the relative viability (NCI-H322M; first compound 0.002 µM) was 0.441 and the relative viability (NCI-H322M; first compound 0.006325 µM) was 0.524. The relative viability (NCI-H322M; first compound 0.02 µM) was 0.441, the relative viability (NCI-H2023; first compound 0.0002 µM) was 0.498 and the relative viability (NCI-H2023; first compound 0.000632 µM) was 0.521. For the same compound, the relative viability (NCI-H2023; first compound 0.002 µM) was 0.141, the relative viability (NCI-H2023; first compound 0.006325 µM) was 0.127 and the relative viability (NCI-H2023; first compound 0.02 µM) was 0.0628. It also gave a relative viability (LCLC-97TM1; first compound 0.0002 µM) of 0.171, a relative viability (LCLC-97TM1; first compound 0.000632 µM) of 0.195 and a relative viability (LCLC-97TM1; first compound 0.002 µM) of 0.148. For the same compound, the relative viability (LCLC-97TM1; first compound 0.006325 µM) was 0.108, the relative viability (LCLC-97TM1; first compound 0.02 µM) was 0.08 and the relative viability (H3255; first compound 0.0002 µM) was 0.554. The relative viability (H3255; first compound 0.000632 µM) was 0.635, the relative viability (H3255; first compound 0.002 µM) was 0.52 and the relative viability (H3255; first compound 0.006325 µM) was 0.361. For the same compound, the relative viability (H3255; first compound 0.02 µM) was 0.303, the relative viability (NCI-H2009; first compound 0.0002 µM) was 0.273 and the relative viability (NCI-H2009; first compound 0.000632 µM) was 0.312.
